In patent US6828111B2, “Three-dimensional in vitro model of human preneoplastic breast disease” (Wayne State University, priority 2000, dated 2004):
Entries after “also recorded” stand apart in the source; their conditions may differ.

Assays:
Format in all cases: cell-based, human
EIII8-HUVEC co-cultures [1] = assay: Heterotypic EIII8-HUVEC 3D Matrigel co-culture, morphology; details: for inhibition of endothelial sprouting and associated ductal-alveolar morphogenesis: 1 nM E2 plus 100-fold molar excess of antiestrogen, day 5
From the text: For heterotypic 3D co-cultures, 5×10^4 MCF10A, MCF10AT1, or EIII8 cells were mixed with an equal number of HUVECs, human breast fibroblasts (reduction mammoplasty, benign or tumor-derived), IMR-90, HT1080 or NIH 3T3 cells. For heterotypic tricultures, MCF10A or EIII8 cells were mixed with equivalent numbers of human breast fibroblasts (reduction mammoplasty, benign or tumor-derived) and HUVECs and seeded onto chamber slides coated with Matrigel as described for homotypic cultures. Typically, heterotypic co-cultures were performed in SFM supplemented with EGF and bFGF since this medium results in optimal viability, growth and 3D organization of both HUVEC and MCF10A cells. Typically, heterotypic cultures were performed in SFM supplemented with EGF and bFGF because it allows optimal viability, growth and 3D organization of HUVEC, fibroblasts and MCF10A cells. Heterotypic co-cultures were routinely maintained up to 3 weeks, and morphological development was analyzed by phase contrast microscopy. F To assess growth effects of E2 on homotypic (EIII8) or heterotypic (EIII8-HUVEC) 3D cultures, 5×10^4 EIII8 cells were seeded alone or mixed with an equivalent number of HUVEC in the appropriate medium in 8-well chamber slides coated with Matrigel as described above. Slides were incubated overnight to allow attachment of the cells, and treated with vehicle (0.01% ethanol, v/v), pure antiestrogen ICI 182,780 alone (100 or 1000 nM (Zeneca Pharmaceuticals, […]2 (0.1, 1 or 10 nM; Sigma Chemical Co., St. Louis, Mo.), or a combination of 1 nM E2 and 100- or 1000-fold molar excess of ICI 182,780. Cultures were incubated at 37° C. for 5 days, after which cell viability was measured with the MTS (3-(4,5-dimethylthiazol-2-yl)-5-(3-carboxymethoxyphenyl)-2-(4-sulfophenyl)-2H-tetrazolium) kit according to the manufacturer's directions (Promega Corp, Madison, Wis.).

EIII8-HUVEC co-cultures [2] = assay: 3D growth of EIII8-HUVEC cultures by MTS assay and trypan blue counts
Protocol: To assess growth effects of E2 on homotypic (EIII8) or heterotypic (EIII8-HUVEC) 3D cultures, 5×10^4 EIII8 cells were seeded alone or mixed with an equivalent number of HUVEC in the appropriate medium in 8-well chamber slides coated with Matrigel as described above. Slides were incubated overnight to allow attachment of the cells, and treated with vehicle (0.01% ethanol, v/v), pure antiestrogen ICI 182,780 alone (100 or 1000 nM (Zeneca Pharmaceuticals, […]2 (0.1, 1 or 10 nM; Sigma Chemical Co., St. Louis, Mo.), or a combination of 1 nM E2 and 100- or 1000-fold molar excess of ICI 182,780. Cultures were incubated at 37° C. for 5 days, after which cell viability was measured with the MTS (3-(4,5-dimethylthiazol-2-yl)-5-(3-carboxymethoxyphenyl)-2-(4-sulfophenyl)-2H-tetrazolium) kit according to the manufacturer's directions (Promega Corp, Madison, Wis.). Measurements were made from triplicate sets of wells for each treatment. Background absorbance was corrected by preparing triplicate sets of wells containing only Matrigel (“no cell”) and the same volume of medium and MTS reagent as in experimental wells. Average absorbances from “no cell” wells were subtracted from sample absorbance values containing cells to yield corrected absorbance, and the results represent the average±S.E. of triplicate samples. Each experiment was repeated at least three times. Since the MTS assays performed here differs from routine MTS assays in that they are done on 3D cultures growing in Matrigel rather than monolayers, results of MTS assays were validated by performing direct cell counts of viable cells in the 3D cultures. For this, the medium was removed, wells rinsed with PBS, and Matrigel was digested with dispase for 2 h at 37° C. The digested material was centrifuged at 4000×g for 10 min, and the pellet treated with trypsin to recover single cells from the 3D tubular structures. The number of viable cells was determined by trypan blue exclusion in a hemocytometer. Results were expressed as mean±S.E. from three independent experiments.

MCF10A-HUVEC co-cultures = assay: Heterotypic MCF10A-HUVEC 3D Matrigel co-culture, morphology
From the text: For heterotypic 3D co-cultures, 5×10^4 MCF10A, MCF10AT1, or EIII8 cells were mixed with an equal number of HUVECs, human breast fibroblasts (reduction mammoplasty, benign or tumor-derived), IMR-90, HT1080 or NIH 3T3 cells. For heterotypic tricultures, MCF10A or EIII8 cells were mixed with equivalent numbers of human breast fibroblasts (reduction mammoplasty, benign or tumor-derived) and HUVECs and seeded onto chamber slides coated with Matrigel as described for homotypic cultures. Typically, heterotypic co-cultures were performed in SFM supplemented with EGF and bFGF since this medium results in optimal viability, growth and 3D organization of both HUVEC and MCF10A cells. Typically, heterotypic cultures were performed in SFM supplemented with EGF and bFGF because it allows optimal viability, growth and 3D organization of HUVEC, fibroblasts and MCF10A cells. Heterotypic co-cultures were routinely maintained up to 3 weeks, and morphological development was analyzed by phase contrast microscopy. F

VEGF165 = assay: Western blot of VEGF165 in culture media of EIII8-HUVEC 3D cultures
Protocol: (§1) 5×10^4 EIII8 or MCF10A cells were seeded alone or mixed with an equivalent number of HUVEC on Matrigel in SFM media as described above. Cells were incubated for 6 h to attach and the medium was replaced with fresh SFM. After appropriate incubation, the culture media from homotypic and heterotypic co-cultures were collected, centrifuged to remove debris and stored at −20° C. Following removal of culture medium, matrix containing the 3D structures was either solubilized for SDS-PAGE and Western blot analysis or fixed in buffered formalin for evaluation of morphology and distribution of functional markers. Analysis of expression of VEGF, IL-8, Estrogen receptor (ER) and Flk-1/KDR proteins was carried out by Western analysis with specific antibodies. […] The following antibodies to human proteins were used: (1) rabbit polyclonal anti-VEGF antisera (recognizes C-terminal epitope of VEGF165, VEGF189 and VEGF206; Oncogene Science), mouse anti-ER mAb (Clone 1D5; reacts with the N-terminal domain or A/B region of the ER; Dako Corp., Carpenteria, Calif.), mouse anti-Flk-1/KDR mAb (Chemicon International, Inc.) and goat polyclonal anti-IL-8 antibody (R&D Systems). Immunoreactive bands were visualized by chemiluminescence, and band intensities were quantitated with a Model 300A densitometer (Molecular Dynamics, Sunnyvale, Calif.).

EIII8 cells = assay: Homotypic EIII8 3D Matrigel culture, phase contrast morphology
Flk-1/KDR = assay: Western blot of Flk-1/KDR in matrix fractions of EIII8-HUVEC 3D cultures; details: for regulation of Flk-1/KDR protein levels: 10-day old co-cultures
Protocol: (§2) 5×10^4 EIII8 or MCF10A cells were seeded alone or mixed with an equivalent number of HUVEC on Matrigel in SFM media as described above. Cells were incubated for 6 h to attach and the medium was replaced with fresh SFM. After appropriate incubation, the culture media from homotypic and heterotypic co-cultures were collected, centrifuged to remove debris and stored at −20° C. Following removal of culture medium, matrix containing the 3D structures was either solubilized for SDS-PAGE and Western blot analysis or fixed in buffered formalin for evaluation of morphology and distribution of functional markers.
Analysis of expression of VEGF, IL-8, Estrogen receptor (ER) and Flk-1/KDR proteins was carried out by Western analysis with specific antibodies. Aliquots of unconcentrated conditioned media or lysates of 3D cultures containing 20 or 40 μg total protein, respectively, were collected after indicated culture intervals, separated by SDS-PAGE on 12.5% (VEGF), 17% (IL-8) or 7% (ER and Flk-1/KDR) polyacrylamide gels (Laemmli, UK, Nature 227:680-685, 1970), and subjected to Western blot analysis. The following antibodies to human proteins were used: (1) rabbit polyclonal anti-VEGF antisera (recognizes C-terminal epitope of VEGF165, VEGF189 and VEGF206; Oncogene Science), mouse anti-ER mAb (Clone 1D5; reacts with the N-terminal domain or A/B region of the ER; Dako Corp., Carpenteria, Calif.), mouse anti-Flk-1/KDR mAb (Chemicon International, Inc.) and goat polyclonal anti-IL-8 antibody (R&D Systems). Immunoreactive bands were visualized by chemiluminescence, and band intensities were quantitated with a Model 300A densitometer (Molecular Dynamics, Sunnyvale, Calif.).

[3] = system: EIII8+31R+HUVEC tricultures; assay: 3D growth of EIII8+31R+HUVEC tricultures, viable cell count; details: 1 or 10 nM E2, 6 days, reduction mammoplasty fibroblasts
Protocol: (§3) 3-D cultures were set up by seeding 5×10^4 EIII8, HUVEC, […] or […] (reduction mammoplasty fibroblasts), […] or […] (tumor-derived breast fibroblasts) alone or mixing 5×10^4 EIII8 cells with an equivalent number of […] (or […]) or […] (or […]) in the absence or presence of an equivalent number of HUVEC cells onto chamber slides coated with Matrigel as described above. Cultures were incubated at 37° C. for 6 days, after which the cell viability was measured in the 3-D cultures. The medium was removed, wells were rinsed with phosphate buffered saline, and the Matrigel was digested with dispase for 2 h at 37° C. The digested material was centrifuged at 4000×g for 10 min, and the pellet was treated with trypsin to recover single cells from the 3-D structures. The number of viable cells was determined by trypan blue exclusion in a hemocytometer and results expressed as average±SE from three independent experiments. […]

[4] = system: EIII8+38T+HUVEC tricultures; assay: 3D growth of EIII8+38T+HUVEC tricultures, viable cell count
Protocol: as §3

IL-8 = assay: Western blot of IL-8 in culture media of EIII8-HUVEC 3D cultures
Protocol: as §1

[5] = system: wild type ER protein (67 kDa); assay: Western blot of ER in matrix fractions of EIII8-HUVEC 3D cultures; details: 100-fold molar excess over E2, day 5; 42 kDa ER-reactive protein appears
Protocol: as §2
Analysis of expression of VEGF, IL-8, Estrogen receptor (ER) and Flk-1/KDR proteins was carried out by Western analysis with specific antibodies. Aliquots of unconcentrated conditioned media or lysates of 3D cultures containing 20 or 40 μg total protein, respectively, were collected after indicated culture intervals, separated by SDS-PAGE on 12.5% (VEGF), 17% (IL-8) or 7% (ER and Flk-1/KDR) polyacrylamide gels (Laemmli, UK, Nature 227:680-685, 1970), and subjected to Western blot analysis. […] Immunoreactive bands were visualized by chemiluminescence, and band intensities were quantitated with a Model 300A densitometer (Molecular Dynamics, Sunnyvale, Calif.).

With `CC/C(=C(\c1ccc(O)cc1)c1ccc(OCCN(C)C)cc1)c1ccccc1` [4(OH) tamoxifen] as the molecule, how does the “inhibition of endothelial sprouting and associated ductal-alveolar morphogenesis” value (EIII8-HUVEC co-cultures [1]) read?
Its value is “dramatic inhibition”.

What does the source list for `C[C@]12CC[C@@H]3c4ccc(O)cc4CC[C@H]3[C@@H]1CC[C@@H]2O` [E2, 17 β-estradiol]?
increase in growth over control cultures (EIII8-HUVEC co-cultures [2]; 10 nM E2, day 5, p<0.01): 2 fold; concentrations giving dose dependent induction of growth (EIII8-HUVEC co-cultures [2]; day 5, MTS and trypan blue assays): > 1 nM; influence on growth and proliferation of endothelial or epithelial cells (MCF10A-HUVEC co-cultures; addition of E2 (1 nM), day 5): no significant influence; increase in VEGF165 levels over control cultures (VEGF165; 1 nM E2, day 5, densitometry): 4 fold; increase in VEGF165 levels over control cultures (VEGF165; 1 nM E2, day 10, densitometry): 8 fold; growth of endothelial cell-enriched spots and ductal-alveolar outgrowths (EIII8-HUVEC co-cultures [1]; 1 nM E2, 5-day co-cultures, vs control): enhanced; effect on EIII8 3D tubular structures (tube thickening, central spaces, connecting bridges) (EIII8 cells; 1 or 10 nM E2, 5 days, vs control cultures): marked thickening of tubes; also recorded: induce formation of several new central spaces and connecting bridges; levels of Flk-1/KDR protein, E2-treated vs control (Flk-1/KDR; 1 nM E2, 5 day-old cultures): equally up-regulated; regulation of Flk-1/KDR protein levels (Flk-1/KDR): no longer regulated; stimulation of triculture growth [3]: failed to stimulate growth; increase in triculture growth ([4]; apparent only with 10 nM E2, 6 days, p<0.03): marginal increase; regulation of IL-8 expression (IL-8; 1 nM E2, days 5 and 10): did not appear to regulate IL-8 expression

Which results are given for `C[C@]12CC[C@@H]3c4ccc(O)cc4C[C@@H](CCCCCCCCC[S+]([O-])CCCC(F)(F)C(F)(F)F)[C@H]3[C@@H]1CC[C@@H]2O` (some centres unmarked) [ICI 182,780]?
effect on growth promoting effects of E2 (EIII8-HUVEC co-cultures [2]; 100-fold molar excess over 1 nM E2, day 5, p<0.001): abolished; formation of endothelial cell-enriched spots / endothelial cell growth (MCF10A-HUVEC co-cultures; 1 nM E2 plus 100-fold molar excess ICI 182,780, day 5, MCF10A epithelium maintained): abolished; also recorded: specific inhibition; amount of wild type ER [5]: significantly reduced; E2-stimulated VEGF165 levels (VEGF165; ICI 182,780 at 100-fold molar excess over 1 nM E2): returned to control levels; inhibition of endothelial sprouting and associated ductal-alveolar morphogenesis (EIII8-HUVEC co-cultures [1]): dramatic inhibition; also recorded: specific inhibition; blocking of E2-induced effects on EIII8 3D structures (epithelial multilayering) (EIII8 cells; 1 nM E2 plus 100-fold molar excess of antiestrogen, 5 days): blocked; also recorded: significantly inhibits; regulation of Flk-1/KDR protein levels (Flk-1/KDR): no longer regulated; reduction in Flk-1/KDR protein levels (Flk-1/KDR; 100-fold molar excess, 5-day old cultures): about 80%; inhibition of growth in vehicle- and E2-treated cultures ([4]; 100 nM ICI 182,780 alone or with 1 nM E2, 6 days, p<0.001): significantly inhibited; also recorded: significantly decreased; effect on IL-8 levels (IL-8; 100-fold molar excess over 1 nM E2, days 5 and 10): no effect
